Our source for the benchmark concentration values is the supplement of paper PMC9151546.

Where a name gives a salt, the structure may show the parent alone. ± gives the standard deviation of the averaged measurements.

The first assay deals with CHO-K1. Briefly: benchmark concentration for 60% increase in hypodiploid frequency (BMC60); higher = less potent aneugen. The conditions noted are these: S9 metabolic activation: with S9. Here is the method:
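Benchmark concentration modelling (PROAST, Hill/exponential model families) of the 19-concentration flow-cytometric micronucleus assay in CHO-K1 cells, with and without rat liver S9. Only non-cytotoxic and adequate (relative survival >=40%) concentrations were used. BMR was a 30% increase in %MN (BMC30) or a 60% increase in %hypodiploid (BMC60) over control.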
In the case of `COC(=O)Nc1nc2ccccc2[nH]1` [Carbendazim], the benchmark concentration was 32 µM.
Still for that read-out and setting: as for `CN(C)[C@@H]1C(=O)C(C(N)=O)=C(O)[C@@]2(O)C(=O)C3=C(O)c4c(O)cccc4[C@@](C)(O)[C@H]3[C@H](O)[C@@H]12` [Oxytetracycline hydrochloride], the figure is 110 µM; as for `Nc1cc(Cl)cc(C(=O)O)c1Cl` [Chloramben], 9.7 µM.

Still in this assay, the particulars now being: S9 metabolic activation: without S9.
`Cc1cccc(C)c1N` [2,6-Dimethylaniline] displayed a benchmark concentration of 87 µM.
`C/C=C\c1ccc(O)c(OC)c1` [Isoeugenol] registered a benchmark concentration of 72 µM.
`CCc1cccc(C)c1N(C(=O)CCl)C(C)COC` (stereo not given) [Metolachlor] yielded a benchmark concentration of 180 µM.
With `Clc1cccc(Cl)c1` [1,3-Dichlorobenzene], the benchmark concentration came to 160 µM.
In turn, `ClC(Cl)c1ccccc1` [Benzal chloride] returned a benchmark concentration of 91 µM.
`CCOC(=O)C(C)(C)Oc1ccc(Cl)cc1` [Clofibrate]: the benchmark concentration came to 130 µM.
Turning to `OC(Cn1cncn1)(Cn1cncn1)c1ccc(F)cc1F` [Fluconazole], the benchmark concentration was determined as 90 µM.
On to `Cc1ccc(C(C)C)c(O)c1` [Thymol], for which the benchmark concentration came out at 100 µM.
Molecule `Nc1ccc(S(=O)(=O)c2ccc(N)cc2)cc1` [Dapsone] registered a benchmark concentration of 39 µM.
With `OC(CCl)CCl` [1,3-Dichloro-2-propanol], the benchmark concentration came to 75 µM.
Same read-out and setting: as for `Oc1ccc(Cl)cc1Cc1ccccc1` [Clorophene], the figure is 34 µM.
As for `Cc1ccccc1O` [o-Cresol], the benchmark concentration came to 130 µM.
On the same count and under the same terms, as for `COc1ccc([N+](=O)[O-])cc1N` [2-Methoxy-5-nitroaniline], the figure is 90 µM; as for `Cc1ccc(N)cc1O` [5-Amino-2-methylphenol], 5.3 µM; as for `O=C=NCCCCCCN=C=O` [1,6-Diisocyanatohexane], 100 µM.
The molecule `CN(C)C(=S)S` [Sodium dimethyldithiocarbamate] yielded a benchmark concentration of 49 µM.
`CCN(CC)c1ccccc1` [N,N-Diethylaniline] returned a benchmark concentration of 77 µM.
Molecule `Nc1ccc(C(=O)O)cc1` [4-Aminobenzoic acid] had a benchmark concentration of 110 µM.
As to `c1ccc2[nH]c(-c3cscn3)nc2c1` [Thiabendazole], the benchmark concentration amounted to 14.1 ± 7 µM.
The molecule `c1ccc2occc2c1` [2,3-Benzofuran] gave a benchmark concentration of 61 µM.
On the same count and under the same terms, as for `ClC1=C(Cl)C2(Cl)C3C4CC(C5OC45)C3C1(Cl)C2(Cl)Cl` (stereo not given) [Endrin], the figure is < 4.5 µM.
`Clc1cc(Cl)c(Cl)cc1Cl` [1,2,4,5-Tetrachlorobenzene] yielded a benchmark concentration of 110 µM.
Same read-out and setting: next, `Cl[C@H]1[C@H](Cl)[C@@H](Cl)[C@H](Cl)[C@@H](Cl)[C@@H]1Cl` [beta-Hexachlorocyclohexane]: 32 µM.
As for `NC(=O)N1c2ccccc2C=Cc2ccccc21` [Carbamazepine], the benchmark concentration is 110 µM.
`O=C(O)C(F)(F)C(F)(F)C(F)(F)C(F)(F)C(F)(F)C(F)(F)C(F)(F)F` [PFOA] had a benchmark concentration of 6.7 µM.
The same measure, in the same setting: as for `CC(C)NCC(O)c1ccc(O)c(O)c1` (stereo not given) [Isoproterenol hydrochloride], the figure is 110 µM.
Molecule `CSC(C)(C)/C=N/O` [Aldicarb oxime] displayed a benchmark concentration of 40 µM.
On the same count and under the same terms, as for `COC(=O)c1ccccc1C(=O)OC` [Dimethyl phthalate], the figure is 120 µM.
`CC(C)(C)OOC(C)(C)CCC(C)(C)OOC(C)(C)C` [2,5-Dimethyl-2,5-di-(tert-butylperoxy)hexane] gave a benchmark concentration of 60 µM.
`O=[N+]([O-])c1ccc(Cl)cc1` [1-Chloro-4-nitrobenzene] returned a benchmark concentration of 120 µM.
On the same count and under the same terms, next, `Cc1ccc(N(C)C)cc1` [N,N,4-Trimethylaniline]: 39 µM; `CCN(CC)C(=O)SCc1ccc(Cl)cc1` [Thiobencarb]: 113 ± 110 µM; `CC(=O)Nc1ccc(O)cc1` [Acetaminophen]: 36 µM.
On to `Cc1c(C)c2c(c(C)c1O)CCC(C)(COc1ccc(CC3SC(=O)NC3=O)cc1)O2` (stereo not given) [Troglitazone], for which the benchmark concentration was found to be 14 µM.
On to `ClC(Cl)(Cl)c1ccccc1` [Benzotrichloride], for which the benchmark concentration was 45 µM.
Regarding `COC(=O)Nc1nc2ccccc2[nH]1` [Carbendazim], the benchmark concentration was < 4.5 µM.
Regarding `O=C(O)c1ccccc1` [Benzoic acid], the benchmark concentration stood at 110 µM.
The molecule `COC(=O)c1ccccc1N` [Methyl 2-aminobenzoate] came in with a benchmark concentration of 77 µM.
`CC(=O)OCCC(C)C` [3-Methylbutyl acetate] came in with a benchmark concentration of 13 µM.
Molecule `O=[N+]([O-])c1ccccc1` [Nitrobenzene] yielded a benchmark concentration of 26 µM.
As for `CC1(C)C(=O)N(Br)C(=O)N1Br` [1,3-Dibromo-5,5-dimethylhydantoin], the benchmark concentration amounted to 93 µM.
`CC(C)=CCCC(C)CCO` (stereo not given) [Citronellol] had a benchmark concentration of 72 µM.
Consider `O=C(Nc1ccc(Cl)cc1)Nc1ccc(Cl)c(Cl)c1` [Triclocarban], for which the benchmark concentration is < 4.5 µM.
`Cc1cn(C2CC(N=[N+]=[N-])C(CO)O2)c(=O)[nH]c1=O` (stereo not given) [3-Azido-3-deoxythymidine] registered a benchmark concentration of 72 µM.
Molecule `CCCCCCCCCC(=O)O` [Decanoic acid] registered a benchmark concentration of 30 µM.
Still for that read-out and setting: next, `Nc1ccccc1N` [1,2-Phenylenediamine]: 47 µM; `Nc1ccc(Cc2ccc(N)cc2)cc1` [4,4'-Methylenedianiline]: 74 µM; `Oc1ccccc1Cl` [2-Chlorophenol]: 97 µM.
`O=c1ccc2ccccc2o1` [Coumarin] gave a benchmark concentration of 9.7 µM.
As to `CC(C)C(=O)Nc1ccc([N+](=O)[O-])c(C(F)(F)F)c1` [Flutamide], the benchmark concentration came to 17 µM.
On the same count and under the same terms, next, `O=S(=O)(O)c1ccc(N=Nc2c(O)ccc3cc(S(=O)(=O)O)ccc23)cc1` [FD&C Yellow 6]: 13 µM.
The same measure, in the same setting: as for `O=c1c(O)c(-c2ccc(O)c(O)c2)oc2cc(O)cc(O)c12` [Quercetin], the figure is 110 µM; as for `Cc1ccc(N)c(N)c1` [3,4-Diaminotoluene], 52 µM; as for `c1ccc2cc3ccccc3cc2c1` [Anthracene], 51 µM.
The same measure, in the same setting: as for `CN(C)c1ccccc1` [N,N-Dimethylaniline], the figure is 43 µM; as for `ClC1=C(Cl)C2(Cl)C3C(Cl)C(Cl)CC3C1(Cl)C2(Cl)Cl` (stereo not given) [Chlordane], 54 µM; as for `CC(C)COC(=O)c1ccccc1C(=O)OCC(C)C` [Diisobutyl phthalate], 32 µM.
`CCCCCCCCCCO` [1-Decanol] yielded a benchmark concentration of 120 µM.
Take `Nc1cc(Cl)cc(C(=O)O)c1Cl` [Chloramben]: the benchmark concentration came out at 110 µM.
Still for that read-out and setting: as for `CCc1nc(N)nc(N)c1-c1ccc(Cl)cc1` [Pyrimethamine], the figure is 49 µM; as for `Cc1occc(=O)c1O` [Maltol], 100 µM; as for `O=NO` [Sodium nitrite], 77 µM.
As for `C/C=C/c1ccc(OC)cc1` [(E)-Anethole], the benchmark concentration turned out to be 35 µM.
The molecule `Cc1c(C(=O)O)c(O)cc2c1C(=O)c1c(O)c([C@@H]3O[C@H](CO)[C@@H](O)[C@H](O)[C@H]3O)c(O)c(O)c1C2=O` [Carminic acid] yielded a benchmark concentration of 13 µM.
The same measure, in the same setting: next, `CCCCOCCOCCO` [2-(2-Butoxyethoxy)ethanol]: 100 µM.
In the case of `CC/C(=C(/CC)c1ccc(O)cc1)c1ccc(O)cc1` [Diethylstilbestrol], the benchmark concentration worked out at 4.8 µM.
For `Oc1c(Cl)c(Cl)c(Cl)c(Cl)c1Cl` [Pentachlorophenol], the benchmark concentration turned out to be 9 µM.
In turn, `Cc1ccc(Cl)cc1` [4-Chlorotoluene] had a benchmark concentration of 60 µM.
Take `COc1cc(-c2ccc(N)c(OC)c2)ccc1N` [3,3'-Dimethoxybenzidine dihydrochloride]: the benchmark concentration was determined as 7.6 µM.
Molecule `C[C@]12CCC(=O)C=C1CC[C@@H]1[C@@H]2CC[C@]2(C)C(=O)CC[C@@H]12` [4-Androstene-3,17-dione] returned a benchmark concentration of 34 µM.
The molecule `Clc1cccc(Cl)c1Cl` [1,2,3-Trichlorobenzene] yielded a benchmark concentration of 32 µM.
As for `CCCCCCc1ccc(O)cc1O` [4-Hexylresorcinol], the benchmark concentration is < 4.5 µM.
With `COc1cc(C=O)ccc1O` [4-Hydroxy-3-methoxybenzaldehyde], the benchmark concentration was found to be 53 µM.
For `O=c1[nH]c(=O)[nH]c(=O)[nH]1` [Cyanuric acid], the benchmark concentration was found to be 91 µM.
`C1CC2OC2CC1C1CO1` (stereo not given) [4-Vinyl-1-cyclohexene dioxide] came in with a benchmark concentration of 35 µM.
In turn, `Clc1ccc(Cl)c(Cl)c1` [1,2,4-Trichlorobenzene] had a benchmark concentration of 100 µM.
`O=P(OCCCl)(OCCCl)OCCCl` [Tris(2-chloroethyl) phosphate]: the benchmark concentration came out at 150 µM.
`CC(=O)c1ccccc1` [Acetophenone] showed a benchmark concentration of 50 µM.
Take `CC(C)C(=O)OCC(C)(C)C(OC(=O)C(C)C)C(C)C` (stereo not given) [2,2,4-Trimethyl-1,3-pentanediol diisobutyrate]: the benchmark concentration turned out to be 190 µM.
Regarding `COCCOCCO` [Diethylene glycol monomethyl ether], the benchmark concentration was 90 µM.
`CCCCC(CC)CO` (stereo not given) [2-Ethyl-1-hexanol] registered a benchmark concentration of 56 µM.
For the molecule `c1ccc2n[nH]nc2c1` [1,2,3-Benzotriazole], the benchmark concentration is 93 µM.
